Experimental data published in patent publication US7465752B2, “Pentenoic acid derivatives, processes for the preparation thereof, pharmaceutical compositions comprising them, and therapeutic applications thereof” (Merck Patent GmbH, priority 2004, dated 2008).

Tests used:
db/db mice = conditions: 100 mg/kg/day orally for 15 days
Procedure: The antidiabetic and hypolipidaemiant activity of the compounds was determined orally on db/db mice.
Nine-week-old db/db mice are treated orally for 15 days with the compound of Example 6 (100 mg/kg/day). Each group studied comprises seven animals. After treatment for 15 days, retro-orbital samples are taken under mild anaesthesia and after fasting for four hours.
The following parameters were measured:
Assay of the glycaemia (glucose oxidase) and of the lipid parameters on the sera at D15 (COBAS): triglycerides, total cholesterol (CHOL), HDL cholesterol (HDL-C) and free fatty acids (FFA) (BioMérieux and Waco Chemicals assay kit).
The measurements reported represent mean values±standard error.

GaI4 alone = conditions: vector expressing GaI4 alone, in the presence of the product
Procedure: (§1) CV-1 cells (monkey kidney cells) are co-transfected with an expression vector for the chimeric proteins PPARα-GaI4 or PPARγ-GaI4 and with a “reporter” plasmid that allows the expression of the luciferase gene placed under the control of a promoter comprising GaI4 response elements.
(§2) The cells are plated into 96-well microplates and co-transfected using a commercial reagent with the reporter plasmid (pG5-tk-pGL3) and the expression vector for the chimeric protein (PPARα-GaI4 or PPARγ-GaI4). After incubating for 4 hours, whole culture medium (comprising 10% foetal calf serum) is added to the wells. After 24 hours, the medium is removed and replaced with whole medium comprising the test products (50 μM final). The products are left in contact with the cells for 18 hours. The cells are then lysed and the luciferase activity is measured using a luminometer.

[1] = target: chimeric protein PPARα-GaI4 (Homo sapiens, UniProt Q07869); conditions: 50 μM, 18 hours contact, CV-1 cells
Procedure: (§3) The measurement of the PPAR activation was performed according to a lo technique described by Lehmann et al. (1995, J. Biol. Chem., 270, 12953-12956).
as §1, §2

[2] = target: chimeric protein PPARγ-GaI4 (Homo sapiens, UniProt P37231); conditions: 50 μM, 18 hours contact, CV-1 cells
Procedure: as §3, §1, §2

[3] = serum at D15, fasted 4 hours, mean ± standard error

Sequence of chimeric protein PPARγ-GaI4 (P37231 238-503 limits assumed, change not shown): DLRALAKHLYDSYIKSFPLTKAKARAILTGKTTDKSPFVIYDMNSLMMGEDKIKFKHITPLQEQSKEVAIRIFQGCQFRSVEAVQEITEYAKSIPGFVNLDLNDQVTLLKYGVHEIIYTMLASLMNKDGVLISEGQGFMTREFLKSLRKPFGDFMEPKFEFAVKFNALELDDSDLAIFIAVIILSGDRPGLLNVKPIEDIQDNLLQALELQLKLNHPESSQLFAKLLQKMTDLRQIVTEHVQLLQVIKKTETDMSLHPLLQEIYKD
Sequence of chimeric protein PPARα-GaI4 (Q07869 239-466 limits assumed, change not shown): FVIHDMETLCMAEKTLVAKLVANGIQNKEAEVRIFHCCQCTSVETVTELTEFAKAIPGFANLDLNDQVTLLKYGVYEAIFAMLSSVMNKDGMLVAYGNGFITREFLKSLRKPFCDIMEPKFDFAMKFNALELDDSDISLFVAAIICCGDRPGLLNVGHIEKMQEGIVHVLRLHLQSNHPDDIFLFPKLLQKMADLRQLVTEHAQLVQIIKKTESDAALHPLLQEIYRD

Which results are given for `O=C(O)[C@@H](CC=Cc1ccccc1)Oc1ccc(-c2cc3ccccc3s2)cc1` (racemic) [Example 6, (R,S)-2-{[4-(benzo[b]thiophen-2-yl)phenyl]oxy}-5-phenylpent-4-enoic acid]?
FFA, % var. (percentage of variation versus control) (db/db mice; D15, not significant): −10% (ns); CHOL, % var. (percentage of variation versus control) (db/db mice; D15, p < 0.01 versus control): −20% (**); Glycaemia, % var. (percentage of variation versus control) (db/db mice; D15, p < 0.01 versus control): −50% (**); HDL-C, % var. (percentage of variation versus control) (db/db mice; D15, p < 0.01 versus control): −25% (**); Triglycerides, % var. (percentage of variation versus control) (db/db mice; D15, p < 0.05 versus control): −31% (*); CHOL (total cholesterol) (db/db mice; [3]): 2.98 ± 0.25 mM; FFA (free fatty acids) (db/db mice; [3]): 0.78 ± 0.18 mM; Glycaemia (db/db mice; [3]): 14.93 ± 4.29 Mm; HDL-C (db/db mice; [3]): 2.31 ± 0.20 Mm; Triglycerides (db/db mice; [3]): 1.47 ± 0.59 mM; luciferase activity in absence of the PPAR α or γ ligand binding domain (GaI4 alone): zero; PPAR activation factor (reporter gene expression relative to control cells) [1]: 7; PPAR activation factor (reporter gene expression relative to control cells) [2]: 21
